One assay concerns the target h5-HT2b (Homo sapiens, UniProt P41595). The assay is described as follows: side effect profiling, h5-HT2b. In kind it is binding. The following applies: at 10 uM.
The target in the next assay is hNK3 (Homo sapiens, UniProt P29371). The assay is described as follows: side effect profiling, hNK3. The class given is binding.
Another assay deals with T1, DOR (Homo sapiens, UniProt P41143).
T1 construct: expressed in transfected cells; host or cells: CHO
As to the kind of experiment: competitive radioligand binding assay, DOR ([3H]diprenorphine, CHO cell membranes). As to conditions: Tables A, B; read-out: Binding Affinity Ki (nM) ± SEM, DOR.

The target of a further assay is KOR (Mus musculus, UniProt P33534). The assay is described as follows: competitive radioligand binding assay, KOR ([3H]diprenorphine, CHO cell membranes). Details: expressed in transfected cells; host or cells: CHO. The following applies: Tables A, B; read-out: Binding Affinity Ki (nM) ± SEM, KOR.

Counter-ions that a name gives are not always drawn.

As a reminder, the Ki is a measure of affinity in units of concentration, obtained from inhibition or displacement. For the compound `O=C(N[C@H]1CC[C@@]2(O)[C@H]3Cc4ccc(O)c5c4[C@@]2(CCN3CC2CC2)[C@H]1O5)c1cccs1` [Example 1 compound 25, 17-Cyclopropylmethyl-3,14β-dihydroxy-4,5α-epoxy-6α-(2′-thienylcarboxamido)morphinan hydrochloride], the h5-HT2b binding entry on h5-HT2b is given as “h5-HT2b (78% at 10 uM)”. Also, the Ki on hNK3 is 3.9 µM. The compound further gave a hNK3 binding at hNK3 (at 10 uM) of 56%.
Regarding `O=C(N[C@H]1CC[C@@]2(O)[C@H]3Cc4ccc(O)c5c4[C@@]2(CCN3CC2CC2)[C@H]1O5)c1nccs1` [NTZ, 17-Cyclopropylmethyl-3,14β-dihydroxy-4,5α-epoxy-6α-(2′-thiazolylcarboxamido)morphinan hydrochloride], the Ki on DOR was 41.1 ± 3.58 nM; at KOR, 1.3 ± 0.12 nM.

The values above are taken from patent US20250195504A1, “NALTREXAMINE DERIVATIVES BEARING 5-MEMBER HETEROCYCLIC RING SYSTEMS AND OPIOID RECEPTOR MODULATORS” (VIRGINIA COMMONWEALTH UNIVERSITY, priority 2022, published 2025).
